The values that follow come from patent US9661854B2, “Molecules having pesticidal utility, and intermediates, compositions, and processes, related thereto” (Dow AgroSciences LLC, priority 2015, dated 2017).

Type in all cases: in vivo
In data set [1] the test system is Beet Armyworm (Spodoptera exigua, LAPHEG). Briefly: Bioassay on Beet Armyworm (BAW), 128-well diet tray assay. To be noted: 168 h, 50 μg/cm^2 on artificial diet, second instar larvae, 25° C., five to seven days, average of eight wells, read-out: BAW % Control (or Mortality) rating. The procedure, abridged: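 Second-instar larvae, one to five per well, fed artificial diet surface-treated with 50 μg/cm^2 test molecule in 90:10 acetone-water, dried before infestation; eight wells per molecule. Held at 25 °C, 14:10 light-dark for five to seven days; percent mortality averaged over wells.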

Data set [2] relates to Cabbage Looper (Trichoplusia ni, TRIPNI). Briefly: Bioassay on Cabbage Looper (CL), 128-well diet tray assay. As to conditions: 168 h, 50 μg/cm^2 on artificial diet, second instar larvae, 25° C., five to seven days, average of eight wells, read-out: CL % Control (or Mortality) rating. The procedure, abridged: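 Second-instar larvae (one to five per well) placed on artificial diet treated with 50 μg/cm^2 test molecule in 90:10 acetone-water, dried; eight wells per molecule. Held at 25° C., 14:10 light-dark, for five to seven days. Percent mortality scored per well and averaged over the eight wells.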

Data set [3] relates to Yellow Fever Mosquito (Aedes aegypti, AEDSAE). To be noted: about 1 day-old larvae, master plate 4000 ppm solution diluted, room temperature, scored after 3 days. Here is the method: Example B: Bioassays on Yellow Fever Mosquito (Aedes aegypti, AEDSAE (“YFM”)
Certain molecules disclosed in this document were tested against YFM using procedures described in the following paragraph. In the reporting of the results, the “YFM Rating Table” was used (See Table Section).
Master plates containing 400 μg of a molecule dissolved in 100 μL of dimethyl sulfoxide (DMSO) (equivalent to a 4000 ppm solution) are used. A master plate of assembled molecules contains 15 μL per well. To this plate, 135 μL of a 90:10 water/acetone mixture is added to each well. A robot (Biomek® NXP Laboratory Automation Workstation) is programmed to dispense 15 μL aspirations from the master plate into an empty 96-well shallow plate (“daughter” plate). There are 6 reps (“daughter” plates) created per master. The created “daughter” plates are then immediately infested with YFM larvae.
The day before plates are to be treated, mosquito eggs are placed in Millipore water containing liver powder to begin hatching (4 g into 400 mL). After the “daughter” plates are created using the robot, they are infested with 220 μL of the liver powder/larval mosquito mixture (about 1 day-old larvae). After plates are infested with mosquito larvae, a non-evaporative lid is used to cover the plate to reduce drying. Plates are held at room temperature for 3 days prior to grading. After 3 days, each well is observed and scored based on mortality. The results are indicated in the table entitled “Table ABC: Biological Results” (See Table Section).

Take `Cc1ccc(C(C)C)c(N2C(=O)CS/C2=N\C(=O)Nc2ccc(CCc3ncn(-c4ccc(OC(F)(F)F)cc4)n3)c(F)c2)c1` [F23, (Z)-1-(3-Fluoro-4-(2-(1-(4-(trifluoromethoxy)phenyl)-1H-1,2,4-triazol-3-yl)ethyl)phenyl)-3-(3-(2-isopropyl-5-methylphenyl)-4-oxothiazolidin-2-ylidene)urea]: the mortality at 50 µg/cm2 in data set [1] and in data set [2] was 50 to 100% throughout. Also, the “YFM % Control (or Mortality) rating” value in data set [3] is “A (80-100)”.

On to `CC(C)c1ccccc1N1C(=O)CS/C1=N\C(=O)Nc1ccc(CCc2ncn(-c3ccc(Br)cc3)n2)cc1` [F77, (Z)-1-(4-(2-(1-(4-Bromophenyl)-1H-1,2,4-triazol-3-yl)ethyl)phenyl)-3-(3-(2-isopropylphenyl)-4-oxothiazolidin-2-ylidene)urea], for which the mortality at 50 µg/cm2 in data set [1] and in data set [2] was 50 to 100% each time. Besides, in data set [3], the “YFM % Control (or Mortality) rating” value is given as “A (80-100)”.

On to `Cc1ccc(OC(C)(C)C)c(N2C(=O)CS/C2=N\C(=O)Nc2ccc(CCc3ncn(-c4ccc(OC(F)(F)F)cc4)n3)cc2)c1` [F14, (Z)-1-(3-(2-(tert-Butoxy)-5-methylphenyl)-4-oxothiazolidin-2-ylidene)-3-(4-(2-(1-(4-(trifluoromethoxy)phenyl)-1H-1,2,4-triazol-3-yl)ethyl)phenyl)urea], for which the mortality at 50 µg/cm2 in data set [1] and in data set [2] was 50 to 100% each time. Moreover, the “YFM % Control (or Mortality) rating” value in data set [3] is “A (80-100)”.

Consider `CCCc1ccc(C)cc1N1C(=O)CS/C1=N\C(=O)Nc1ccc(CCc2ncn(-c3ccc(OC(F)(F)F)cc3)n2)cc1F` [F26, (Z)-1-(2-Fluoro-4-(2-(1-(4-(trifluoromethoxy)phenyl)-1H-1,2,4-triazol-3-yl)ethyl)phenyl)-3-(3-(5-methyl-2-propylphenyl)-4-oxothiazolidin-2-ylidene)urea], for which the mortality at 50 µg/cm2 in data set [1] and in data set [2] was 50 to 100% each time. In addition, in data set [3], the “YFM % Control (or Mortality) rating” value is “A (80-100)”.

In the case of `Cc1ccc(C(C)C)c(N2C(=O)CS/C2=N\C(=O)Nc2ccc(CC(C)c3ncn(-c4ccc(OC(F)(F)F)cc4)n3)cc2)c1` (stereo not shown) [F15, (Z)-1-(3-(2-Isopropyl-5-methylphenyl)-4-oxothiazolidin-2-ylidene)-3-(4-(2-(1-(4-(trifluoromethoxy)phenyl)-1H-1,2,4-triazol-3-yl)propyl)phenyl)urea], the mortality at 50 µg/cm2 in data set [1] and in data set [2] was 50 to 100% in each case. Besides, the “YFM % Control (or Mortality) rating” value in data set [3] is recorded as “A (80-100)”.

In the case of `CC(C)c1ccccc1N1C(=O)CS/C1=N\C(=O)Nc1ccc(CCc2ncn(-c3ccc(C(F)(F)F)cc3C#N)n2)cc1` [F76, (Z)-1-(4-(2-(1-(2-cyano-4-(trifluoromethyl)phenyl)-1H-1,2,4-triazol-3-yl)ethyl)phenyl)-3-(3-(2-isopropylphenyl)-4-oxothiazolidin-2-ylidene)urea], the mortality at 50 µg/cm2 in data set [1] and in data set [2] was 50 to 100% each time. Also, in data set [3], the “YFM % Control (or Mortality) rating” value is listed as “A (80-100)”.

`Cc1ccc(C(C)C)c(N2C(=O)CS/C2=N\C(=O)Nc2ccc(/C=C/c3ncn(-c4ccc(OC(F)(F)F)cc4)n3)cc2)c1` [F38, 1-((Z)-3-(2-isopropyl-5-methylphenyl)-4-oxothiazolidin-2-ylidene)-3-(4-((E)-2-(1-(4-(trifluoromethoxy)phenyl)-1H-1,2,4-triazol-3-yl)vinyl)phenyl)urea]: the mortality at 50 µg/cm2 in data set [1] and in data set [2] was 50 to 100% each time. For the same compound, the “YFM % Control (or Mortality) rating” value in data set [3] is “A (80-100)”.

As for `CCC(C)Oc1ccc(C)cc1N1C(=O)CS/C1=N\C(=O)Nc1ccc(/C=C/c2ncn(-c3ccc(OC(F)(F)F)cc3)n2)cc1F` (stereo not shown) [F60, 1-((Z)-3-(2-(sec-Butoxy)-5-methylphenyl)-4-oxothiazolidin-2-ylidene)-3-(2-fluoro-4-((E)-2-(1-(4-(trifluoromethoxy)phenyl)-1H-1,2,4-triazol-3-yl)vinyl)phenyl)urea], the mortality at 50 µg/cm2 in data set [1] and in data set [2] was 50 to 100% in each case. The “YFM % Control (or Mortality) rating” value in data set [3] is on record as “A (80-100)”.

As for `Cc1ccc(C(C)C)c(N2C(=O)CS/C2=N\C(=O)Nc2ccc(/C=C/c3ncn(-c4ccc(OC(F)(F)F)cc4)n3)cc2F)c1` [F55, 1-(2-Fluoro-4-((E)-2-(1-(4-(trifluoromethoxy)phenyl)-1H-1,2,4-triazol-3-yl)vinyl)phenyl)-3-((Z)-3-(2-isopropyl-5-methylphenyl)-4-oxothiazolidin-2-ylidene)urea], the mortality at 50 µg/cm2 in data set [1] and in data set [2] was 50 to 100% in each case.

As to `Cc1ccc(C(C)C)c(N2C(=O)CS/C2=N\C(=O)Nc2c(F)cc(/C=C/c3ncn(-c4ccc(OC(F)(F)F)cc4)n3)cc2F)c1` [F57, 1-(2,6-difluoro-4-((E)-2-(1-(4-(trifluoromethoxy)phenyl)-1H-1,2,4-triazol-3-yl)vinyl)phenyl)-3-((Z)-3-(2-isopropyl-5-methylphenyl)-4-oxothiazolidin-2-ylidene)urea], the mortality at 50 µg/cm2 in data set [1] and in data set [2] was 50 to 100% throughout.

The term mortality denotes the percentage killed.
